Drawing on patent publication US10144706B2 (BRISTOL-MYERS SQUIBB COMPANY, priority 2016, dated 2018), this text covers IC50 for 27 compounds.

pIC50: −log10 of the molar value.

T1 sequence (Q9NZQ7 with tags, fused parts or gaps): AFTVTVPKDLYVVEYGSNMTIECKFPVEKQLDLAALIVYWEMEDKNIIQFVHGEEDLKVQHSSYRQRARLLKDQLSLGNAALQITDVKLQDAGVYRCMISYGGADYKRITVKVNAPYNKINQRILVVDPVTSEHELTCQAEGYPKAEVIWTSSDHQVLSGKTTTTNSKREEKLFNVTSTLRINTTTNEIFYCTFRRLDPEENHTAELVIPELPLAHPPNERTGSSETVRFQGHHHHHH

The first assay has as its target T1, PD-1/PD-L1 interaction (PD-1-Ig / PD-L1-His) (Homo sapiens, UniProt Q9NZQ7).
T1 construct: hPDL1(18-239)-TVMV-His; TVMV protease site linker (C); made in house; host or cells: HEK293T
The assay can be described thus: PD-1/PD-L1 Homogenous Time-Resolved Fluorescence (HTRF) binding assay. The following applies: IC50 range class; PD-L1-His 10 nM, PD-1-Ig 20 nM; read-out: Range or IC50. From the text: The ability of the compounds of formula (I) to bind to PD-L1 was investigated using a PD-1/PD-L1 Homogenous Time-Resolved Fluorescence (HTRF) binding assay.
Homogenous Time-Resolved Fluorescence (HTRF) Binding Assay.
The interaction of PD-1 and PD-L1 can be assessed using soluble, purified preparations of the extracellular domains of the two proteins. The PD-1 and PD-L1 protein extracellular domains were expressed as fusion proteins with detection tags, for PD-1, the tag was the Fc portion of Immunoglobulin (PD-1-Ig) and for PD-L1 it was the 6 histidine motif (PD-L1-His). All binding studies were performed in an HTRF assay buffer consisting of dPBS supplemented with 0.1% […] bovine serum albumin and 0.05% (v/v) Tween-20. For the h/PD-L1-His binding assay, inhibitors were pre-incubated with PD-L1-His (10 nM final) for 15 m in 4 μl of assay buffer, followed by addition of PD-1-Ig (20 nM final) in 1 μl of assay buffer and further incubation for 15 m. HTRF detection was achieved using europium crypate-labeled anti-Ig (1 nM final) and allophycocyanin (APC) labeled anti-His (20 nM final). Antibodies were diluted in HTRF detection buffer and 5 μl was dispensed on top of the binding reaction. […] Additional binding assays were established between the human proteins PD-1-Ig/PD-L2-His (20 & 5 nM, respectively) and CD80-His/PD-L1-Ig (100 & 10 nM, respectively). […]
For orientation: TR-FRET usually uses a lanthanide donor and a delayed reading to cut background.
What is called pIC50 is −log10 of the IC50, conventionally taken in molar units. `Cc1c(OCCCNCCS(C)(=O)=O)cccc1-c1cccc(OCCCN2CC[C@@H](O)C2)c1C` [Example 2010, (R)-1-(3-((2,2′-dimethyl-3′-(3-((2-(methylsulfonyl)ethyl)amino)propoxy)-[1,1′-biphenyl]-3-yl)oxy)propyl)pyrrolidin-3-ol]: the negative-log IC50 (pIC50) is 7.05 to 7.70. In the case of `Cc1c(OCCCNC[C@H](O)CO)cccc1-c1cccc(OCCCN2CC[C@@H](O)C2)c1C` [Example 2011, (S)-3-((3-((3′-(3-((R)-3-hydroxypyrrolidin-1-yl)propoxy)-2,2′-dimethyl-[1,1′-biphenyl]-3-yl)oxy)propyl)amino)propane-1,2-diol], the negative logarithm of the IC50 (pIC50) was 7.05 to 7.70. `Cc1c(OCCCN[C@@H](CO)C(=O)O)cccc1-c1cccc(OCCCN2CC[C@@H](O)C2)c1C` [Example 2012, (3-((3′-(3-((R)-3-hydroxypyrrolidin-1-yl)propoxy)-2,2′-dimethyl-[1,1′-biphenyl]-3-yl)oxy)propyl)-L-serine]: the negative-log IC50 (pIC50) was 6.00 to 7.05. Still for that read-out and setting: in the case of `Cc1c(OCCCN[C@@](C)(CO)C(=O)O)cccc1-c1cccc(OCCCN2CC[C@@H](O)C2)c1C` [Example 2013, (S)-3-hydroxy-2-((3-((3′-(3-((R)-3-hydroxypyrrolidin-1-yl)propoxy)-2,2′-dimethyl-[1,1′-biphenyl]-3-yl)oxy)propyl)amino)-2-methylpropanoic acid] it was 6.00 to 7.05; in that of `Cc1c(OCCCNCCO)cccc1-c1cccc(OCCCN2CC[C@@H](O)C2)c1C` [Example 2014, (R)-1-(3-((3′-(3-((2-hydroxyethyl)amino)propoxy)-2,2′-dimethyl-[1,1′-biphenyl]-3-yl)oxy)propyl)pyrrolidin-3-ol], 7.05 to 7.70. On the same count and under the same terms, in the case of `Cc1c(OCCCNCC(O)C(=O)O)cccc1-c1cccc(OCCCN2CC[C@@H](O)C2)c1C` (stereo partly drawn) [Example 2016, 2-hydroxy-3-((3-((3′-(3-((R)-3-hydroxypyrrolidin-1-yl)propoxy)-2,2′-dimethyl-[1,1′-biphenyl]-3-yl)oxy)propyl)amino)propanoic acid] it was 7.05 to 7.70; in that of `Cc1c(OCCCN[C@H]2CC[C@H](O)CC2)cccc1-c1cccc(OCCCN2CC[C@@H](O)C2)c1C` [Example 2017, (R)-1-(3-((3′-(3-(((1r,4r)-4-hydroxycyclohexyl)amino)propoxy)-2,2′-dimethyl-[1,1′-biphenyl]-3-yl)oxy)propyl)pyrrolidin-3-ol], 7.05 to 7.70; in that of `Cc1c(OCCCN2CCCC(C(N)=O)C2)cccc1-c1cccc(OCCCN2CC[C@@H](O)C2)c1C` (stereo partly drawn) [Example 2019, 1-(3-((3′-(3-((R)-3-hydroxypyrrolidin-1-yl)propoxy)-2,2′-dimethyl-[1,1′-biphenyl]-3-yl)oxy)propyl)piperidine-3-carboxamide], 7.70 to 10.40. `Cc1c(OCCCNCCCn2ccnc2)cccc1-c1cccc(OCCCN2CC[C@@H](O)C2)c1C` [Example 2020, (R)-1-(3-((3′-(3-((3-(1H-imidazol-1-yl)propyl)amino)propoxy)-2,2′-dimethyl-[1,1′-biphenyl]-3-yl)oxy)propyl)pyrrolidin-3-ol]: the negative-log IC50 (pIC50) is 7.70 to 10.40.

For the compound `Cc1c(OCCCNCCCN2CCOCC2)cccc1-c1cccc(OCCCN2CC[C@@H](O)C2)c1C` [Example 2021, (R)-1-(3-((2,2′-dimethyl-3′-(3-((3-morpholinopropyl)amino)propoxy)-[1,1′-biphenyl]-3-yl)oxy)propyl)pyrrolidin-3-ol], the negative-log IC50 (pIC50) was 7.05 to 7.70.

For `Cc1c(OCCCNCCc2cccnc2)cccc1-c1cccc(OCCCN2CC[C@@H](O)C2)c1C` [Example 2022, (R)-1-(3-((2,2′-dimethyl-3′-(3-((2-(pyridin-3-yl)ethyl)amino)propoxy)-[1,1′-biphenyl]-3-yl)oxy)propyl)pyrrolidin-3-ol], the negative logarithm of the IC50 (pIC50) is 7.70 to 10.40.

For `Cc1c(OCCCNCc2ccccn2)cccc1-c1cccc(OCCCN2CC[C@@H](O)C2)c1C` [Example 2024, (R)-1-(3-((2,2′-dimethyl-3′-(3-((pyridin-2-ylmethyl)amino)propoxy)-[1,1′-biphenyl]-3-yl)oxy)propyl)pyrrolidin-3-ol], the negative logarithm of the IC50 (pIC50) was 7.05 to 7.70. For `Cc1c(OCCCNCCO)cccc1-c1cccc(OCCCNCCO)c1C` [Example 2027, 2,2′-((((2,2′-dimethyl-[1,1′-biphenyl]-3,3′-diyl)bis(oxy))bis(propane-3,1-diyl))bis(azanediyl))bis(ethan-1-ol)], the pIC50 is 7.05 to 7.70. Turning to `Cc1c(OCCCNCCc2ccncc2)cccc1-c1cccc(OCCCNCCc2ccncc2)c1C` [Example 2028, 3,3′-((2,2′-dimethyl-[1,1′-biphenyl]-3,3′-diyl)bis(oxy))bis(N-(2-(pyridin-4-yl)ethyl)propan-1-amine)], the negative-log IC50 (pIC50) was 7.70 to 10.40. Same read-out and setting: in the case of `Cc1c(OCCCN(C)CCCO)cccc1-c1cccc(OCCCN(C)CCCO)c1C` [Example 2030, 3,3′-((((2,2′-dimethyl-[1,1′-biphenyl]-3,3′-diyl)bis(oxy))bis(propane-3,1-diyl))bis(methylazanediyl))bis(propan-1-ol)] it was 7.70 to 10.40; in that of `Cc1c(OCCCN(C)C[C@H](O)CO)cccc1-c1cccc(OCCCN(C)C[C@H](O)CO)c1C` [Example 2031, (2S,2′S)-3,3′-((((2,2′-dimethyl-[1,1′-biphenyl]-3,3′-diyl)bis(oxy))bis(propane-3,1-diyl))bis(methylazanediyl))bis(propane-1,2-diol)], 7.70 to 10.40.

With `Cc1c(OCCCN(C)CCN(C)C)cccc1-c1cccc(OCCCN2CC[C@@H](O)C2)c1C` [Example 2032, (R)-1-(3-((3′-(3-((2-(dimethylamino)ethyl)(methyl)amino)propoxy)-2,2′-dimethyl-[1,1′-biphenyl]-3-yl)oxy)propyl)pyrrolidin-3-ol], the pIC50 was 7.05 to 7.70. With `Cc1c(OCCCN2CC[C@@H](O)C2)cccc1-c1cccc(OCCCN2CC[C@H](CO)[C@H](O)C2)c1C` [Example 2033, (3S,4R)-4-(hydroxymethyl)-1-(3-((3′-(3-((R)-3-hydroxypyrrolidin-1-yl)propoxy)-2,2′-dimethyl-[1,1′-biphenyl]-3-yl)oxy)propyl)piperidin-3-ol], the pIC50 is 7.70 to 10.40. Still for that read-out and setting: in the case of `Cc1c(OCCCN(C)CCO)cccc1-c1cccc(OCCCN2CC[C@@H](O)C2)c1C` [Example 2034, (R)-1-(3-((3′-(3-((2-hydroxyethyl)(methyl)amino)propoxy)-2,2′-dimethyl-[1,1′-biphenyl]-3-yl)oxy)propyl)pyrrolidin-3-ol] it was 7.05 to 7.70. The same measure, in the same setting: for `Cc1c(OCCCNCCc2ccncc2)cccc1-c1cccc(OCCCN2CC[C@@H](O)C2)c1C` [Example 2035, (R)-1-(3-((2,2′-dimethyl-3′-(3-((2-(pyridin-4-yl)ethyl)amino)propoxy)-[1,1′-biphenyl]-3-yl)oxy)propyl)pyrrolidin-3-ol] the value was 7.70 to 10.40; for `Cc1c(OCCCN2CCN(C)C(=O)C2)cccc1-c1cccc(OCCCN2CC[C@@H](O)C2)c1C` [Example 2036, (R)-4-(3-((3′-(3-(3-hydroxypyrrolidin-1-yl)propoxy)-2,2′-dimethyl-[1,1′-biphenyl]-3-yl)oxy)propyl)-1-methylpiperazin-2-one], 6.00 to 7.05; for `Cc1c(OCCCN[C@@H](Cc2ccncc2)C(=O)O)cccc1-c1cccc(OCCCN2CC[C@@H](O)C2)c1C` [Example 2037, (S)-2-((3-((3′-(3-((R)-3-hydroxypyrrolidin-1-yl)propoxy)-2,2′-dimethyl-[1,1′-biphenyl]-3-yl)oxy)propyl)amino)-3-(pyridin-4-yl)propanoic acid], 6.00 to 7.05. For the compound `Cc1c(OCCCNCCC(N)=O)cccc1-c1cccc(OCCCN2CC[C@@H](O)C2)c1C` [Example 2038, (R)-3-((3-((3′-(3-(3-hydroxypyrrolidin-1-yl)propoxy)-2,2′-dimethyl-[1,1′-biphenyl]-3-yl)oxy)propyl)amino)propanamide], the pIC50 was 6.00 to 7.05. The same measure, in the same setting: for `Cc1c(OCCCN2CC[C@@H](O)C2)cccc1-c1cccc(OCCCN2C[C@H](O)C[C@H]2C(=O)O)c1C` [Example 2039, (2S,4R)-4-hydroxy-1-(3-((3′-(3-((R)-3-hydroxypyrrolidin-1-yl)propoxy)-2,2′-dimethyl-[1,1′-biphenyl]-3-yl)oxy)propyl)pyrrolidine-2-carboxylic acid] the value was 5.00 to 6.00; for `Cc1c(OCCCNCCc2ccccc2)cccc1-c1cccc(OCCCN2CC[C@@H](O)C2)c1C` [Example 2041, (R)-1-(3-((2,2′-dimethyl-3′-(3-(phenethylamino)propoxy)-[1,1′-biphenyl]-3-yl)oxy)propyl)pyrrolidin-3-ol], 6.00 to 7.05; for `Cc1c(OCCCNCCCO)cccc1-c1cccc(OCCCN2CC[C@@H](O)C2)c1C` [Example 2042, (R)-1-(3-((3′-(3-((3-hydroxypropyl)amino)propoxy)-2,2′-dimethyl-[1,1′-biphenyl]-3-yl)oxy)propyl)pyrrolidin-3-ol], 7.05 to 7.70.

The assay is the same for the next values; noted with them: numeric IC50; PD-L1-His 10 nM, PD-1-Ig 20 nM; read-out: Range or IC50.
As to `CC(=O)N[C@@H]1CCN(CCCOc2cccc(-c3cccc(OCCCN4CC[C@@H](O)C4)c3C)c2C)C1` [Example 2018, N—((R)-1-(3-((3′-(3-((R)-3-hydroxypyrrolidin-1-yl)propoxy)-2,2′-dimethyl-[1,1′-biphenyl]-3-yl)oxy)propyl)pyrrolidin-3-yl)acetamide], the pIC50 is 7.16.
